Assay results published in patent US9441006B2, “Polymorph of 2-[4-[(methylamino)carbonyl]-1H-pyrazol-1-yl]adenosine” (Farmak, a.s., priority 2013, dated 2016).
Read-outs that look alike come from different tables or passages of the source.

Tests used:
[1] = background art, WO 2008/143667, cited from earlier work
[2] = Dissolution rate in water (Lasentec FBRM particle size distribution measurement); type: physicochemical; details: 165 mg in 500 ml water, identical conditions, FIG. 4
Protocol: Equal amounts of both polymorphs (165 mg) were dissolved in the same amounts of water (500 ml) under identical conditions (dissolving regime, stirrer revolutions, etc.). It is obvious that the dissolution rate of polymorph E is approximately twofold. Polymorph E is completely dissolved within about 45 minutes, whereas the same amount of polymorph A is, under same conditions, dissolved after about 90 minutes.

[3] = Solubility of polymorph E in water in comparison with polymorph A; type: physicochemical; details: at different temperatures
[4] = all known polymorphic forms; cited from earlier work

Compound: CNC(=O)c1cnn(-c2nc(N)c3ncn([C@@H]4O[C@H](CO)[C@@H](O)[C@H]4O)c3n2)c1 [Polymorph C, 2-[4-[(methylamino)carbonyl]-1H-pyrazol-1-yl]adenosine]
- stability of the polymorph [1]: converted to unstable forms by heating

Compound: CNC(=O)c1cnn(-c2nc(N)c3ncn([C@@H]4O[C@H](CO)[C@@H](O)[C@H]4O)c3n2)c1 [amorphous form, 2-[4-[(methylamino)carbonyl]-1H-pyrazol-1-yl]adenosine]
- stability of the polymorph [1]: unstable

Compound: CNC(=O)c1cnn(-c2nc(N)c3ncn([C@@H]4O[C@H](CO)[C@@H](O)[C@H]4O)c3n2)c1 [polymorph A, 2-[4-[(methylamino)carbonyl]-1H-pyrazol-1-yl]adenosine monohydrate]
- time to complete dissolution in water ([2]; monohydrate): about 90 minutes
- stability of the polymorph ([1]; monohydrate): relatively stable

Compound: CNC(=O)c1cnn(-c2nc(N)c3ncn([C@@H]4O[C@H](CO)[C@@H](O)[C@H]4O)c3n2)c1 [polymorph E, 2-[4-[(methylamino)carbonyl]-1H-pyrazol-1-yl]adenosine]
- solubility in water [3]: practically the same
- dissolution rate in water relative to polymorph A [2]: approximately twofold
- time to complete dissolution in water [2]: about 45 minutes

Compound: CNC(=O)c1cnn(-c2nc(N)c3ncn([C@@H]4O[C@H](CO)[C@@H](O)[C@H]4O)c3n2)c1 [regadenoson, 2-[4-[(Methylamino)carbonyl]-1H-pyrazol-1-yl]adenosine]
- water solubility [4]: poor water solubility
